The experiment concerns HCV 1b-377-neo replicon cells. Put plainly: HCV replicon FRET assay. It counts as cell-based. Conditions: Hepatitis C virus; HCV replicon; read-out: Activity (EC50). The text has this:
The HCV replicon cell line was isolated from colonies as described by Lohman, et. al. (Science 1999, 285, 110-113, expressly incorporated by reference in its entirety) and used for all experiments. The HCV replicon has the nucleic acid sequence set forth in EMBL Accession No.: AJ242652, the coding sequence of which is from nt 1801 to 7758.
The coding sequence of the published HCV replicon was synthesized by Operon Technologies, Inc. (Alameda, Calif.), and the fall-length replicon was then assembled in plasmid pGem9zf(+) (Promega, Madison, Wis.) using standard molecular biology techniques. The replicon consists of (i) the HCV 5′ UTR fused to the first 12 amino acids of the capsid protein, (ii) the neomycin phosphotransferase gene (neo), (iii) the IRES from encephalomyocarditis virus (EMCV), and (iv) HCV NS3 to NS5B genes and the HCV 3′ UTR. Plasmid DNAs were linearized with ScaI and RNA transcripts were synthesized in vitro using the T7 MegaScript transcription kit (Ambion, Austin, Tex.) according to manufacturer's directions.
To generate cell lines, 4×10^6 Huh-7 cells (kindly provided by R. Bartenschlager and available from Health Science Research Resources Bank, Japan Health Sciences Foundation) were electroporated (GenePulser System, Bio-Rad) with 10 micrograms(“μg”) of RNA transcript and plated into 100-mm dishes. After 24 hours, selective media containing 1.0 milligrams/milliliter (“mg/mL”) G418 was added and media was changed every 3 to 5 days. […] These cell lines were maintained at 37° C., 5% CO2, 100% relative humidity in DMEM (Cat#11965-084) Gibco-BRL, Rockville, Md., with 10% heat inactivated calf serum (Sigma), 10 mL of 100× penicillin/streptomycin (Cat#15140-122) Gibco-BRL, Rockville, Md., Geneticin (Cat#10131-027) Gibco-BRL, Rockville, Md. at 1 mg/mL. One of the cell lines (deposited as ATCC Accession No. PTA-4583 in the American Type Culture Collection) which had approximately 3,000 copies of HCV replicon RNA/cell was used for development of the assay (HCV 1b-377-neo replicon cells).
To perform the HCV FRET screening assay, 96-well cell culture plates were used. The FRET peptide (Anaspec, Inc., San Jose, Calif.) (Taliani et al., Anal. Biochem. 1996, 240, 60-67, hereby incorporated by reference in its entirety) contains a fluorescence donor, EDANS, near one end of the peptide and an acceptor, DABCYL, near the other end. The fluorescence of the peptide is quenched by […] resonance energy transfer (RET) between the donor and the acceptor, but as the NS3 protease cleaves the peptide the products are released from RET quenching and the fluorescence of the donor becomes apparent.
The assay reagent was made as follows: 5X luciferase cell culture lysis (Cat#E153A, Promega, Madison, Wis.) diluted to 1X with dH2O, NaCl added to […] final, the FRET peptide diluted to 20 micromolar (“μM”) final from a 2 mM stock. HCV 1b-377-neo replicon cells were trypsinized, placed into each well of a 96-well plate and allowed to attach overnight. The next day, the test compounds were added to columns 1 through 10; column 11 was media plus DMSO only, and column 12 contained a titration of interferon or an HCV specific inhibitor as a control (1000 units for A12, B12, 100 units for C12, D12, 10 units for E12, F12 and 1 unit for G12, H12). […] In addition, naïve Huh-7 cells could also be used to replace wells A12 and B12 as a background control.
At subsequent various times (typically 72 hours), 10% final volume Alamar blue (Cat#00-100, Trek Diagnostics, Cleveland, Ohio) was added to each well. The plates were returned to the incubator for 5 hours and then read in the Cytoflour (PE Biosystems) to determine Alamar blue conversion in each well as a measure of cellular toxicity.

Here are results for 37 compounds from patent publication US8143288B2, “Inhibitors of HCV replication” (priority 2005, dated 2012).

For orientation: EC50 means the midpoint of the concentration-response curve. Consider `CC(C)C(=O)N1CCC[C@H]1C(=O)Nc1ccc(/C=C/c2ccc(NC(=O)[C@@H]3CCCN3C(=O)c3ccc(N(C)C)cc3)cc2)cc1` [Example 93], for which the EC50 lay in the range of 100 to 1000 nM.
For the compound `CCCc1c(C(=O)N2CCC[C@H]2C(=O)Nc2ccc(/C=C/c3ccc(NC(=O)[C@@H]4CCCN4C(=O)c4cnn(-c5ccccc5)c4CCC)cc3)cc2)cnn1-c1ccccc1` [Example 175], the EC50 was 1000 to 10000 nM.
In the case of `CC(=O)N1CCC[C@H]1C(=O)Nc1ccc(/C=C/c2ccc(NC(=O)[C@@H]3CCCN3C(=O)Cc3ccncc3)cc2)cc1` [Example 51], the EC50 was 100 to 1000 nM.
As for `O=C(Nc1ccc(/C=C/c2ccc(NC(=O)[C@@H]3CCCN3C(=O)Cc3ccccc3)c(F)c2)cc1F)[C@@H]1CCCN1C(=O)Cc1ccccc1` [Example 276], the EC50 fell in the range of 0.1 to 90 nM.
With `CN(C)C(=O)N1CCC[C@H]1C(=O)Nc1ccc(/C=C/c2ccc(NC(=O)[C@@H]3CCCN3C(=O)N(C)C)cc2)cc1` [Example 288] the figure was 100 to 1000 nM.
Take `O=C(Nc1ccc(/C=C/c2ccc(NC(=O)[C@@H]3CCCN3C(=O)C3CCC3)cc2)cc1)[C@@H]1CCCN1C(=O)c1ccccn1` [Example 85]: the EC50 is 0.1 to 90 nM.
The same measure for `O=C(Nc1ccc(/C=C/c2ccc(NC(=O)[C@@H]3CCCN3S(=O)(=O)Cc3cccc(C(F)(F)F)c3)cc2)cc1)[C@@H]1CCCN1S(=O)(=O)Cc1cccc(C(F)(F)F)c1` [Example 283]: 1000 to 10000 nM; for `CN(C(=O)[C@@H]1CCCN1C(=O)OCc1ccccc1)c1ccc(/C=C/c2ccc(N(C)C(=O)[C@@H]3CCCN3C(=O)OCc3ccccc3)cc2)cc1` [Example 244]: 1000 to 10000 nM; for `O=C(Nc1ccc(/C=C/c2ccc(NC(=O)[C@@H]3C=CCN3C(=O)Cc3cccnc3)cc2)cc1)[C@@H]1C=CCN1C(=O)Cc1cccnc1` [Example 218]: 0.1 to 90 nM.
Take `CC(=O)c1ccccc1C(=O)N1CCC[C@H]1C(=O)Nc1ccc(/C=C/c2ccc(NC(=O)[C@@H]3CCCN3C(=O)c3ccccc3C(C)=O)cc2)cc1` [Example 135]: the EC50 was 1000 to 10000 nM.
`Cc1ccc(-c2ccccc2C(=O)N2CCC[C@H]2C(=O)Nc2ccc(/C=C/c3ccc(NC(=O)[C@@H]4CCCN4C(=O)c4ccccc4-c4ccc(C)s4)cc3)cc2)s1` [Example 239]: the EC50 was 1000 to 10000 nM.
With `O=C(Nc1ccc(/C=C/c2ccc(NC(=O)[C@@H]3C[C@@H](O)CN3C(=O)OCc3ccccc3)cc2)cc1)[C@@H]1C[C@@H](O)CN1C(=O)OCc1ccccc1` [Example 4] the figure was 0.1 to 90 nM; with `Cc1ccc(C(=O)N2CCC[C@H]2C(=O)Nc2ccc(/C=C/c3ccc(NC(=O)[C@@H]4CCCN4C(=O)c4ccc(C)nc4)cc3)cc2)cn1` [Example 80], 100 to 1000 nM; with `O=C(Nc1ccc(/C=C/c2ccc(NC(=O)[C@@H]3CCCN3C(=O)Cc3ccccc3)cc2)cc1)[C@H]1CCCN1C(=O)Cc1ccccc1` [Example 255], 100 to 1000 nM.
With `O=C(Nc1ccc(/C=C/c2ccc(NC(=O)[C@@H]3CCCN3C(=O)c3cccc4c3Cc3ccccc3-4)cc2)cc1)[C@@H]1CCCN1C(=O)c1cccc2c1Cc1ccccc1-2` [Example 165] the figure was 1000 to 10000 nM; with `O=C(Nc1ccc(/C=C/c2ccc(NC(=O)C3CC(=O)N(Cc4cccs4)C3)cc2)cc1)C1CC(=O)N(Cc2cccs2)C1` (stereo not shown) [Example 13], 1000 to 10000 nM; with `O=C(Nc1ccc(/C=C/c2ccc(NC(=O)[C@@H]3Cc4ccccc4N3C(=O)OCc3ccccc3)cc2)cc1)[C@@H]1Cc2ccccc2N1C(=O)OCc1ccccc1` [Example 19], 0.1 to 90 nM.
For `CN(C)[C@H]1C[C@@H](C(=O)Nc2ccc(/C=C/c3ccc(NC(=O)[C@@H]4C[C@H](N(C)C)CN4C(=O)[C@H]4CCCO4)cc3)cc2)N(C(=O)[C@H]2CCCO2)C1` [Example 226], the EC50 was 100 to 1000 nM.
`Cc1cccc(-c2cccnc2C(=O)N2CCC[C@H]2C(=O)Nc2ccc(/C=C/c3ccc(NC(=O)[C@@H]4CCCN4C(=O)c4ncccc4-c4cccc(C)c4)cc3)cc2)c1` [Example 233]: the EC50 fell in the range of 1000 to 10000 nM.
Turning to `O=C(Nc1ccc(/C=C/c2ccc(NC(=O)[C@@H]3CCCN3C(=O)Cc3ccccc3)cc2)cc1)c1ccccc1` [Example 264], the half-maximal effective concentration (EC50) fell in the range of 0.1 to 90 nM.
For `O=C(Nc1ccc(/C=C/c2ccc(NC(=O)[C@@H]3CCCN3C(=O)C3CC3)cc2)cc1)[C@@H]1CCCN1C(=O)Cc1cccnc1` [Example 63], the EC50 lay in the range of 0.1 to 90 nM.
The same measure for `O=C(Nc1ccc(/C=C/c2ccc(NC(=O)C3CC(=O)N(CCc4cccs4)C3)cc2)cc1)C1CC(=O)N(CCc2cccs2)C1` (stereo not shown) [Example 14]: 1000 to 10000 nM; for `O=C(Nc1ccc(/C=C/c2ccc(NC(=O)[C@@H]3CCCN3C(=O)[C@H]3CCCO3)cc2)cc1)C1CC1` [Example 260]: 100 to 1000 nM; for `O=C(Nc1ccc(/C=C/c2ccc(NC(=O)[C@@H]3CCCN3C(=O)[C@@H]3CCCO3)cc2)cc1)[C@@H]1CCCN1C(=O)[C@@H]1CCCO1` [Example 111]: 100 to 1000 nM.
Regarding `O=C(Nc1ccc(/C=C/c2ccc(NC(=O)[C@@H]3CCCN3C(=O)[C@H]3CCCO3)cc2)cc1)[C@@H]1CCCN1C(=O)[C@H]1CCCO1` [Example 110], the EC50 was 0.1 to 90 nM.
`CCC(C)NC(=O)O[C@@H]1C[C@@H](C(=O)Nc2ccc(/C=C/c3ccc(NC(=O)[C@@H]4C[C@@H](OC(=O)NC(C)CC)CN4C(=O)OCc4ccccc4)cc3)cc2)N(C(=O)OCc2ccccc2)C1` (stereo partly shown) [Example 249]: the EC50 lay within 1000 to 10000 nM.
`Cc1nc2sccn2c1C(=O)N1CCC[C@H]1C(=O)Nc1ccc(/C=C/c2ccc(NC(=O)[C@@H]3CCCN3C(=O)c3c(C)nc4sccn34)cc2)cc1` [Example 214]: the EC50 lay in the range of 0.1 to 90 nM.
For the compound `O=C(Nc1ccc(/C=C/c2ccc(NC(=O)[C@@H]3CCCN3C(=O)c3ccccc3NCc3ccccn3)cc2)cc1)[C@@H]1CCCN1C(=O)c1ccccc1NCc1ccccn1` [Example 161], the EC50 lay in the range of 1000 to 10000 nM.
With `Cn1cncc1C(=O)N1CCC[C@H]1C(=O)Nc1ccc(/C=C/c2ccc(NC(=O)[C@@H]3CCCN3C(=O)c3cncn3C)cc2)cc1` [Example 211] the figure was 0.1 to 90 nM; with `CCC(=O)N1CCC[C@H]1C(=O)Nc1ccc(/C=C/c2ccc(NC(=O)[C@@H]3CCCN3C(=O)c3cccnc3)cc2)cc1` [Example 90], 0.1 to 90 nM; with `Cc1cccc(C(=O)N2CCC[C@H]2C(=O)Nc2ccc(/C=C/c3ccc(NC(=O)[C@@H]4CCCN4)cc3)cc2)n1` [Example 113], 1000 to 10000 nM.
With `CCC(C)NC(=O)O[C@@H]1C[C@@H](C(=O)Nc2ccc(/C=C/c3ccc(NC(=O)[C@@H]4C[C@@H](O)CN4C(=O)OCc4ccccc4)cc3)cc2)N(C(=O)OCc2ccccc2)C1` (stereo partly shown) [Example 245], the EC50 is 1000 to 10000 nM.
Turning to `CCOC(=O)N1CCC[C@H]1C(=O)Nc1ccc(/C=C/c2ccc(NC(=O)[C@@H]3CCCN3C(=O)C3(C(N)=O)CC3)cc2)cc1` [Example 56], the EC50 fell in the range of 100 to 1000 nM.
The same measure for `[N-]=[N+]=Nc1cccc(CC(=O)N2CCC[C@H]2C(=O)Nc2ccc(/C=C/c3ccc(NC(=O)[C@@H]4CCCN4C(=O)Cc4ccccc4)cc3)cc2)c1` [Example 126]: 0.1 to 90 nM; for `O=C(Nc1ccc(/C=C/c2ccc(NC(=O)[C@@H]3CCCN3C(=O)Cc3ccccc3Oc3ccccc3)cc2)cc1)[C@@H]1CCCN1C(=O)Cc1ccccc1Oc1ccccc1` [Example 168]: 1000 to 10000 nM; for `CC(=O)N1CC=C[C@H]1C(=O)Nc1ccc(/C=C/c2ccc(NC(=O)[C@@H]3C=CCN3C(C)=O)cc2)cc1` [Example 217]: 0.1 to 90 nM.
As to `O=C(Nc1ccc(/C=C/c2ccc(NC(=O)[C@@H]3CCCN3C(=O)Cc3ccccc3)cc2)cc1)C1CC1` [Example 292], the EC50 lay in the range of 100 to 1000 nM.
